Laboratory results from US20240366599A1, “HUMAN EFFICACIOUS DOSE AND DOSAGE SCHEDULE OF SPR720” (SPERO THERAPEUTICS, INC., priority 2021, published 2024).

Tests used:
Type in all cases: in vivo, human
[1] = Single ascending dose (SAD) study: pharmacokinetics of SPR719 after oral SPR720; settings: SPR720 1000 mg, fed vs fasted; considered non-clinically significant
Protocol: (§1) The following study was conducted in healthy volunteers to evaluate the safety, tolerability, and pharmacokinetics of SPR720/SPR719. The study included 7 SAD cohorts, of which one was a food effect cohort. SPR720 or placebo (n=8/cohort, 3:1 randomization) were administered to subjects at doses of 100 to 2000 mg in the fasted or fed state. The cohorts administered SPR720 in the fed state were administered 1000 mg or 500 mg (healthy elderly cohort) SPR720. A schematic of the study design appears in FIG. 1.

[2] = Multiple ascending dose (MAD) study: safety and tolerability
Protocol: The multiple ascending dose study utilized 5 cohorts of 8 subjects. Three cohorts were administered a total daily dose of 500 mg to 1500 mg in the fasted state for 7 days. Two cohorts were administered a total daily dose of 500 mg or 1000 mg in the fed state for 14 days. Safety was also monitored throughout the study. […] This conclusion was further supported by stable SPR719 trough concentrations by Day 7 (data not shown). Mean plasma concentration/time curves are shown for the MAD cohorts at days 1 (FIG. 3A), 7 (FIG. 3B), and 14 (FIG. 3C). 2.

[3] = Single ascending dose (SAD) study: safety and tolerability
Protocol: as §1

[4] = MAD Cohort 1, 500 mg 7 days, fasted, N=6
[5] = MAD Cohort 2, 1000 mg 7 days, fasted, N=6
[6] = MAD Cohort 3, 750 mg q12 h 7 days, fasted, N=6
[7] = MAD Cohort 4, 500 mg 14 days, fed, N=6
[8] = MAD Cohort 5, 1000 mg 14 days, fed, N=6
[9] = SAD Cohort 4, 1000 mg Fasted, N=6

Food effect: plasma exposure after high fat meal relative to fasted state [1]: no significant food effect
Structure (SMILES): CCNC(=O)Nc1nc2cc(-c3cnc(C(C)(C)OP(=O)(O)O)cn3)c(F)c([C@H]3CCCO3)c2[nH]1 [SPR720, fobrepodacin]
Subjects reporting TEAEs ([2]; MAD 1000 mg cohorts): 50.0% | Subjects reporting TEAEs ([2]; MAD 1500 mg (750 mg q12h) cohort): 66.7% | Incidence of TEAE: Abdominal Pain [2, 4]: 0 Number (%) of Subjects | Incidence of TEAE: Diarrhea (first line) [2, 4]: 2 (33.3) Number (%) of Subjects | Incidence of TEAE: Diarrhea (second line) [2, 4]: 0 Number (%) of Subjects | Incidence of TEAE: Headache [2, 4]: 2 (33.3) Number (%) of Subjects | Incidence of TEAE: Nausea [2, 4]: 2 (33.3) Number (%) of Subjects | Incidence of TEAE: Vomiting [2, 4]: 1 (16.7) Number (%) of Subjects | Incidence of TEAE: Abdominal Pain [2, 5]: 1 (16.7) Number (%) of Subjects | Incidence of TEAE: Diarrhea (first line) [2, 5]: 4 (66.7) Number (%) of Subjects | Incidence of TEAE: Diarrhea (second line) [2, 5]: 2 (33.3) Number (%) of Subjects | Incidence of TEAE: Headache [2, 5]: 3 (50.0) Number (%) of Subjects | Incidence of TEAE: Nausea [2, 5]: 1 (16.7) Number (%) of Subjects | Incidence of TEAE: Vomiting [2, 5]: 2 (33.3) Number (%) of Subjects | Incidence of TEAE: Abdominal Pain [2, 6]: 0 Number (%) of Subjects | Incidence of TEAE: Diarrhea (first line) [2, 6]: 4 (66.7) Number (%) of Subjects | Incidence of TEAE: Diarrhea (second line) [2, 6]: 1 (16.7) Number (%) of Subjects | Incidence of TEAE: Headache [2, 6]: 2 (33.3) Number (%) of Subjects | Incidence of TEAE: Nausea [2, 6]: 3 (50.0) Number (%) of Subjects | Incidence of TEAE: Vomiting [2, 6]: 1 (16.7) Number (%) of Subjects | Incidence of TEAE: Abdominal Pain [2, 7]: 0 Number (%) of Subjects | Incidence of TEAE: Diarrhea (first line) [2, 7]: 0 Number (%) of Subjects | Incidence of TEAE: Diarrhea (second line) [2, 7]: 0 Number (%) of Subjects | Incidence of TEAE: Headache [2, 7]: 1 (16.7) Number (%) of Subjects | Incidence of TEAE: Nausea [2, 7]: 0 Number (%) of Subjects | Incidence of TEAE: Vomiting [2, 7]: 0 Number (%) of Subjects | Incidence of TEAE: Abdominal Pain [2, 8]: 1 (16.7) Number (%) of Subjects | Incidence of TEAE: Diarrhea (first line) [2, 8]: 3 (50.0) Number (%) of Subjects | Incidence of TEAE: Diarrhea (second line) [2, 8]: 0 Number (%) of Subjects | Incidence of TEAE: Headache [2, 8]: 0 Number (%) of Subjects | Incidence of TEAE: Nausea [2, 8]: 1 (16.7) Number (%) of Subjects | Incidence of TEAE: Vomiting [2, 8]: 0 Number (%) of Subjects | Subjects who discontinued study drug due to increased pancreatic enzymes ([2]; MAD cohort 3 (750 mg q12h), asymptomatic, resolved without interventional treatment): One | Subjects reporting TEAEs ([2]; MAD overall, 18 of 30 subjects who received SPR720): 60.0% | Total number of TEAEs reported ([2]; MAD overall, 30 subjects): 101 | Serious adverse events ([2]; MAD study): No serious adverse events | Severity of TEAEs ([2]; MAD, all TEAEs): mild or moderate | Incidence of TEAE: Abdominal Pain ([2]; Overall MAD SPR720, N=30): 2 (6.7) Number (%) of Subjects | Incidence of TEAE: Diarrhea (first line) ([2]; Overall MAD SPR720, N=30): 13 (42.3) Number (%) of Subjects | Incidence of TEAE: Diarrhea (second line) ([2]; Overall MAD SPR720, N=30): 3 (10.0) Number (%) of Subjects | Incidence of TEAE: Headache ([2]; Overall MAD SPR720, N=30): 8 (26.7) Number (%) of Subjects | Incidence of TEAE: Nausea ([2]; Overall MAD SPR720, N=30): 7 (23.3) Number (%) of Subjects | Incidence of TEAE: Vomiting ([2]; Overall MAD SPR720, N=30): 4 (13.3) Number (%) of Subjects | Cases of Hy's Law ([2]; over 14 days of dosing): no cases | Elevations in ALT ([2]; over 14 days of dosing, slight, asymptomatic and reversible): < 3 ×ULN | Tolerability ([2]; repeat daily oral doses up to 1000 mg over maximum duration of 14 days): well-tolerated | Incidence of TEAE: Diarrhea ([3]; SAD 500 mg Elderly, N=6): 0 Number (%) of Subjects | Incidence of TEAE: Headache ([3]; SAD 500 mg Elderly, N=6): 0 Number (%) of Subjects | Incidence of TEAE: Nausea ([3]; SAD 500 mg Elderly, N=6): 0 Number (%) of Subjects | Incidence of TEAE: Vomiting ([3]; SAD 500 mg Elderly, N=6): 0 Number (%) of Subjects | Subjects reporting TEAEs ([3]; SAD 1500 mg cohort): 66.7% | Subjects reporting TEAEs ([3]; SAD 2000 mg cohort): 100% | Incidence of TEAE: Diarrhea ([3]; SAD Cohort 1, 100 mg, N=6): 0 Number (%) of Subjects | Incidence of TEAE: Headache ([3]; SAD Cohort 1, 100 mg, N=6): 0 Number (%) of Subjects | Incidence of TEAE: Nausea ([3]; SAD Cohort 1, 100 mg, N=6): 0 Number (%) of Subjects | Incidence of TEAE: Vomiting ([3]; SAD Cohort 1, 100 mg, N=6): 0 Number (%) of Subjects | Incidence of TEAE: Diarrhea ([3]; SAD Cohort 2, 250 mg, N=6): 0 Number (%) of Subjects | Incidence of TEAE: Headache ([3]; SAD Cohort 2, 250 mg, N=6): 0 Number (%) of Subjects | Incidence of TEAE: Nausea ([3]; SAD Cohort 2, 250 mg, N=6): 0 Number (%) of Subjects | Incidence of TEAE: Vomiting ([3]; SAD Cohort 2, 250 mg, N=6): 0 Number (%) of Subjects | Incidence of TEAE: Diarrhea ([3]; SAD Cohort 3, 500 mg, N=6): 1 (16.7) Number (%) of Subjects | Incidence of TEAE: Headache ([3]; SAD Cohort 3, 500 mg, N=6): 0 Number (%) of Subjects | Incidence of TEAE: Nausea ([3]; SAD Cohort 3, 500 mg, N=6): 0 Number (%) of Subjects | Incidence of TEAE: Vomiting ([3]; SAD Cohort 3, 500 mg, N=6): 0 Number (%) of Subjects | Incidence of TEAE: Diarrhea [3, 9]: 0 Number (%) of Subjects | Incidence of TEAE: Headache [3, 9]: 1 (16.7) Number (%) of Subjects | Incidence of TEAE: Nausea [3, 9]: 0 Number (%) of Subjects | Incidence of TEAE: Vomiting [3, 9]: 0 Number (%) of Subjects | Incidence of TEAE: Diarrhea ([3]; SAD Cohort 4, 1000 mg Fed, N=6): 0 Number (%) of Subjects | Incidence of TEAE: Headache ([3]; SAD Cohort 4, 1000 mg Fed, N=6): 0 Number (%) of Subjects | Incidence of TEAE: Nausea ([3]; SAD Cohort 4, 1000 mg Fed, N=6): 0 Number (%) of Subjects | Incidence of TEAE: Vomiting ([3]; SAD Cohort 4, 1000 mg Fed, N=6): 0 Number (%) of Subjects | Incidence of TEAE: Diarrhea ([3]; SAD Cohort 5, 1500 mg, N=6): 0 Number (%) of Subjects | Incidence of TEAE: Headache ([3]; SAD Cohort 5, 1500 mg, N=6): 3 (50.0) Number (%) of Subjects | Incidence of TEAE: Nausea ([3]; SAD Cohort 5, 1500 mg, N=6): 4 (66.7) Number (%) of Subjects | Incidence of TEAE: Vomiting ([3]; SAD Cohort 5, 1500 mg, N=6): 3 (50.0) Number (%) of Subjects | Incidence of TEAE: Diarrhea ([3]; SAD Cohort 6, 2000 mg, N=6): 2 (33.3) Number (%) of Subjects | Incidence of TEAE: Headache ([3]; SAD Cohort 6, 2000 mg, N=6): 3 (50.0) Number (%) of Subjects | Incidence of TEAE: Nausea ([3]; SAD Cohort 6, 2000 mg, N=6): 5 (83.3) Number (%) of Subjects | Incidence of TEAE: Vomiting ([3]; SAD Cohort 6, 2000 mg, N=6): 5 (83.3) Number (%) of Subjects | Incidence of TEAE: Diarrhea ([3]; SAD Overall SPR720, n=42): 3 (7.1) Number (%) of Subjects | Incidence of TEAE: Headache ([3]; SAD Overall SPR720, n=42): 7 (16.7) Number (%) of Subjects | Incidence of TEAE: Nausea ([3]; SAD Overall SPR720, n=42): 9 (21.4) Number (%) of Subjects | Incidence of TEAE: Vomiting ([3]; SAD Overall SPR720, n=42): 8 (19.0) Number (%) of Subjects | Subjects reporting TEAEs ([3]; SAD overall, 18 of 42 subjects): 42.9% | Total number of TEAEs reported ([3]; SAD overall, 42 subjects): 35 | Serious adverse events ([3]; SAD study): No serious adverse events | Severity of TEAEs ([3]; SAD, all TEAEs): mild or moderate
